Patent US5707833A, “Process of making cyclodextrin glucanotransferase with brevibacterium” (priority 1993, dated 1998)
Where two headings read alike, the source gives them in different places.

System: cyclodextrin glucanotransferase (γ-CGTase, EC 2.4.1.19) of Brevibacterium sp. No. 9605
Assay type: biochemical
Procedure: (8) Activity measurement: In the measurements of the enzlanological properties described above, enzyme activity was measured by the following method. A 0.05 ml portion of an aqueous solution of the enzyme was added to 0.5 ml of a substrate solution (1.5% by weight soluble starch in 0.1M Atkins & Pantin buffer, pH 10.0) and incubated at 40° C. for 30 minutes. After adding 5 ml of 0.1N hydrochloric acid to terminate the reaction, a 0.5 ml portion of the reaction mixture was taken out and mixed with 5 ml of an iodine solution (0.005% iodine in 0.05% potassium iodide solution) to measure decrease in the absorbance at […]. One unit of the activity was defined as the amount of enzyme which decreases 1% of the absorbance at 660 nm within 1 minute under these conditions.

[1] = enzyme treated with 1 mM inhibitor at 40° C. for 10 minutes in 0.1M H3BO3·KCl-NaOH buffer (pH 8.0), control 100, activity on soluble starch, iodine method

SMILES	Residual Activity (%) [1] [%]	Residual Activity (%) (pH 8)
O=C(O)c1cc[c]([Hg][Cl])cc1 [PCMB, p-chloromercuribenzoic acid]	83	–
CCN1C(=O)C=CC1=O [NEM, N-ethylmaleimide]	84	–
O=C(O)CI [MIA, monoiodoacetic acid]	–	82
